Laboratory results from patent publication US11786517B2, “Methods of treatment using a JAK inhibitor compound” (THERAVANCE BIOPHARMA R&D IP, LLC, priority 2017, dated 2023).

How the values were obtained:
[1] = Ocular pharmacokinetics in rabbit eyes; type: in vivo, New Zealand white rabbits
Method: The objective of this assay was to determine the pharmacokinetics of the test compound in rabbit ocular tissues.
The compound of the invention, 5-ethyl-2-fluoro-4-(3-(5-(1-methylpiperidin-4-yl)-4,5,6,7-tetrahydro-1H-imidazo[4,5-c]pyridin-2-yl)-1H-indazol-6-yl)phenol (1) was dissolved in either 10% 2-hydroxypropyl-β-cyclodextrin to attain a target concentration of 4 mg/mL or in purified water to attain a target concentration of 1 mg/mL. Bilateral intravitreal injection (50 μL/eye) of the solution of test compound was administered to New Zealand white rabbits in two dose groups, 200 μg/eye and 50 μg/eye, respectively, for the cyclodextrin and water vehicle formulations, respectively. The test compound concentration was measured in ocular tissues: vitreous, aqueous, retina/choroid and iris-ciliary body at pre-determined time points post injection (30 min, 4 h, 1 d, 3 d, 7 d, 14 d). Two rabbits (four eyes) were dosed for each time point.
A suspension formulation was prepared by combining crystalline compound 1 of Example 1 with 0.5% hydroxypropyl methylcellulose (HPMC E5)+0.02% Tween 80 to attain a target concentration of 10 mg/mL. Bilateral intravitreal injection (50 μL/eye) of the suspension of test compound was administered to New Zealand white rabbits (500 μg/eye). The test compound concentration was measured in ocular tissues as in the […] at 30 min, 2 wks, 4 wks, 6 wks, and 8 wks post injection. […] The behavior is consistent with the solubility of compound 1 in the vehicle and the ocular pharmacokinetic behavior in the solution formulation. The drug concentration in plasma was measured and found to be at least 3 orders of magnitude lower than the concentration in vitreous tissue.

[2] = tested on: IFNγ induced pSTAT1 in rabbit retina/choroid tissue; assay: Pharmacodynamic assay: inhibition of IFNγ-induced pSTAT1 in rabbit eyes; type: in vivo, New Zealand White rabbits; details: 0.9 mg intravitreal suspension, 1 week pre-treatment
Method: The ability of a single intravitreal administration of test compound to inhibit interferon-gamma (IFNγ) induced phosphorylation of STAT1 protein (pSTAT1) was measured in rabbit retina/choroid tissue.
A suspension formulation was prepared by combining compound 1 of Example 1, with 0.5% hydroxypropyl methylcellulose (HPMC E5), 0.02% Tween 80, and 9 mg/mL sodium chloride in purified water to attain a target concentration of 20 mg/mL.
Male, New Zealand White rabbits (Liveon Biolabs, India) were used for the studies. Animals were acclimated after arrival at the research facilities (Jubilant Biosys Ltd., India). Each rabbit was given a total of two intravitreal (IVT) injections with a total dose volume of 50 μL per eye. The first IVT injection (45 μL per eye) delivered 0.9 mg of test compound or vehicle. One week later, a second IVT injection (5 μL per eye) delivered IFNγ (1 μg/eye; stock solution 1 mg/mL; Kingfisher Biotech) or vehicle for the induction of IP-10. […]
Tissues were collected 2 hours after the second IVT injection with IFNγ. Retina/choroid tissues (R/C) were collected and homogenized, and pSTAT1 levels were measured by quantitative Western Blot on the ProteinSimple WES instrument. The percent inhibition of IFNγ-induced pSTAT1 was calculated in comparison to the vehicle/vehicle and vehicle/IFNγ groups.

drug concentration in plasma lower than concentration in vitreous tissue ([1]; intravitreal injection, listed as compound 1 of Example 1): at least 3 orders of magnitude | clearance rate, linear decrease in drug concentration in the vitreous ([1]; intravitreal suspension 500 μg/eye, 30 min to 6 weeks): approximately 3 μg/mL/day
Structure (SMILES): CCc1cc(O)c(F)cc1-c1ccc2c(-c3nc4c([nH]3)CCN(C3CCN(C)CC3)C4)n[nH]c2c1 [Example 1, Crystalline hydrate of 5-ethyl-2-fluoro-4-(3-(5-(1-methylpiperidin-4-yl)-4,5,6,7-tetrahydro-1H-imidazo[4,5-c]pyridin-2-yl)-1H-indazol-6-yl)phenol]
inhibition of IFNγ-induced pSTAT1 [2]: 85%
